In brackets after ≈: the same amount, converted by molar mass.
Tests used:
[1] = Cyclic voltammetry of isoindigos in DMF (half-wave redox potentials under N2 or CO2); type: physicochemical; details: 2.5 mM in DMF
Protocol: (§1) Electrochemical measurements were conducted using a BioLogic VSP potentiostat (BioLogic Science Instruments). For the cyclic voltammetry measurements, glassy carbon (Ø=3 mm) was used as the working electrode, platinum wire was used as the counter electrode, silver wire was used as the pseudo-reference electrode and ferrocene was used as the internal reference. In a standard cyclic voltammetry measurement, the molecule of interest (2.5 mM) was dissolved in anhydrous DMF with 100 mM NBu4PF6 as the supporting salt. Typical cyclic voltammograms were collected at a scan rate of […]. To study the effects of ionic species on the redox behaviour of the sorbent molecules, 100 mM LiClO4, NaClO4, KClO4, NBu4ClO4, sodium triflate (NaOTf), or sodium bis(trifluoromethanesulfonyl)imide (NaTFSI) was used as the supporting electrolyte salt.

[2] = CO2 binding constant (KCO2) calculated from the shift of the second reduction peak in CV
Protocol: as §1
The CO2 binding constant (KCO2) was calculated by Eq 1: […]

[3] = UV-vis absorption, optical band gap; type: physicochemical; details: UV-vis absorption (Kubelka-Munk spectra)
Protocol: UV-vis absorption spectra were recorded on a Thermo Scientific Genesys 10S UV-vis spectrophotometer.

Solubility in DMF = type: physicochemical
mammalian cells = test: Cytotoxicity test and cell morphology, different mammalian cells; type: cell-based; parameters: dose or concentration left out as unconfirmed
Protocol: (§2) NIH3T3/GFP fibroblast cell line was kindly provided by Dr. Yun Chen at Johns Hopkins University and cultured in Dulbecco's Modified Eagle's Medium (DMEM; Gibco) supplemented with 10% fetal bovine serum (FBS; Hyclone) and 1% penicillin/streptomycin (Pen/Strep; Gibco). U2OS.EGFP cells were kindly provided by Dr. J Keith Joung at Massachusetts General Hospital and cultured in DMEM supplemented with 10% FBS, 2 mM GlutaMAX (Gibco), and 1% Pen/Strep. MCF10A epithelial cell line was kindly provided by Dr. Konstantinos Konstantopoulos at Johns Hopkins University and cultured in DMEM/F-12 (1:1) supplemented with 5% New Zealand horse serum (Gibco), 20 ng mL^−1 EGF (PeproTech), […] hydrocortisone (Sigma Aldrich), 100 ng mL^−1 cholera toxin (Sigma Aldrich), […] insulin (Gibco), and 1% Pen/Strep. All cells were cultured in a humidified incubator at 5% CO2 and 37° C.
(§3) Cell cytotoxicity was examined by alamarBlue HS Cell Viability Reagent (Invitrogen) according to manufacturer's protocol. Rampersad, 2012; Kumar et al., 2018. […] Absorbance was measured at 570 nm by a SpectraMax microplate reader, with 600 nm as a reference wavelength. The cell viability was calculated by relative absorbance to control groups. […] Cell morphology was monitored throughout the assay and images were acquired with an EVOS cell imaging system (Thermo Fisher).

[4] = tested on: MCF10A human breast epithelial cells; test: alamarBlue cytotoxicity assay; type: cell-based; parameters: unit not given here; details: 48 h cell culture
Protocol: as §2, §3

[5] = tested on: NIH3T3/GFP mouse fibroblasts; test: alamarBlue cytotoxicity assay; type: cell-based; details: concentrations up to 100 µg mL^−1, 48 h
Protocol: as §2, §3

[6] = tested on: U2OS.EGFP human osteosarcoma cells; test: alamarBlue cytotoxicity assay; type: cell-based; details: concentrations up to 100 µg mL^−1, 48 h
Protocol: as §2, §3

Compound	E1/2 in N2 (first) ([1]; first half-wave potential vs. Fc^+/Fc, 0.1 M NBu4PF6, N2, 298 K)	E1/2 in N2 (second) ([1]; second half-wave potential vs. Fc^+/Fc, 0.1 M NBu4PF6, N2, 298 K) [V]	E1/2 in CO2 (first or single) ([1]; vs. Fc^+/Fc, 0.1 M NBu4PF6, CO2, 298 K) [V]	K[CO2] ([2]; DMF, 298 K) [M⁻¹]	logK[CO2] ([2]; DMF, 298 K)	ΔEpeak(2) ([2]; difference between the second reduction peak potentials (IId·−/IId2−) in CO2 and N2) [V]	Optical band gap [3] [eV]	Solubility in DMF (Solubility in DMF) [mM]	Biocompatibility compared with unmodified counterpart (mammalian cells; 0.78 to 100, 48 h)	Cell condition in optical microscopic images, compared with IId (mammalian cells; 50, 48 h culture)	LC50 (lethal concentration that causes 50% cell death) [4]	Toxicity [5]	Toxicity [6]
COC(=O)C(CO)NC(=O)c1ccc2c(c1)NC(=O)/C2=C1/C(=O)Nc2ccccc21 (stereo not shown) [6AIIdSer, Methyl isoindigo-6-carbonylserinate]	−1.18, V	−1.60	−1.08	2.57e+08	8.41	0.46	2.04	830 (≈ 338 mg/mL)	much better biocompatibility	cells remained much healthier	–	–	–
Methyl isoindigo-6-carbonylserinate [6AIIdSer]	–	–	–	–	–	–	–	–	–	–	89.4	does not display clear toxicity	does not display clear toxicity
